Results reported in paper PMC5418711, “Safety and efficacy of the choline analogue SAR97276 for malaria treatment: results of two phase 2, open-label, multicenter trials in African patients” (Malaria Journal, 2017).
Values joined by “and” are separate entries in the source; they are usually repeats but may differ in a detail not shown here. Identical values can stand only once.

Key:
[1] = Study 2: safety assessment (TEAEs, ECG, respiratory parameters); assay type: in vivo, human; conditions: for QTc interval - change from baseline Borderline: Incr. from B 30-60 ms / QTc interval - change from baseline Prolonged: Incr. from B > 60 ms / QTc interval Borderline: 431-450 ms (Boys); 451-470 ms (Girls) / QTc interval Prolonged: > 450 ms (Boys); > 470 ms (Girls) / QTc interval ≥ 500 ms: TEAE period
Procedure: Study duration and follow-up In both studies, study duration was 28 days for each patient including a screening period of up to 12 h before inclusion into the study. Participants were hospitalized for at least 3 days (72 h) after the start of treatment. Follow-up visits were done on day 6, 8, 14 ± 2, 21 ± 2, 28 ± 2 (Study 1); and day 7, 14 ± 2, 21 ± 2, 28 ± 2 (Study 2). Patient examination Fever measurements and thick blood smears were done every 6 h until 72 h and at each follow-up visit. Parasitemia was determined microscopically by Giemsa stained thick blood smear by two trained microscopists blinded to each other. Safety assessment Safety analysis was based on AEs including vision assessment recorded from baseline until day 28 (in binocular conditions, for near and distant visual acuity, using standard optotypes appropriate for patient’s age and reading ability. Tests with standard corrective glasses (+3 and −3 diopters) were performed in case of visual adverse events, to assess whether vision improved or worsened with corrective glasses). Laboratory tests including hematology, biochemistry and urine analysis were done at baseline, day 2, 4, 28 (Study 1), or baseline, day 2, 4, 14, 28 (Study 2); vital signs were recorded at baseline, every 6 h until 72 h and on each follow up visit. An electrocardiogram (ECG) was done at baseline, day 4, 28 (Study 1), or baseline, 48 h, 72 h, day 28 (Study 2). For Study 2 respiratory parameters (respiratory rate, peak flow, efficiency of cough) were also checked at baseline and 30 min after first dose on day 1, 2 and 3.
Treatment emergent adverse events (TEAEs) were defined as AEs that developed or worsened during the treatment period until day 6 following the end of study treatment.

malaria monkey model = tested on: malaria monkey model; design: method as in PMID 11847346, PMID 15492221, PMID 12878525; conditions: cited from earlier work
[2] = Group 2A: 3 days IM once daily 0.5 mg/kg, teenagers, N=8
[3] = Group 2A: 3 days IM once daily 0.5 mg/kg, teenagers, N=8, baseline 205
[4] = Group 2A: 3 days IM once daily 0.5 mg/kg, teenagers
[5] = Group 2B: 3 days IM twice daily 0.25 mg/kg, teenagers, N=8
[6] = Group 2B: 3 days IM twice daily 0.25 mg/kg, teenagers, N=8, baseline 185
[7] = Group 2B: 3 days IM twice daily 0.25 mg/kg, teenagers

With Cc1c(CCO)sc[n+]1CCCCCCCCCCCC[n+]1csc(CCO)c1C [SAR97276A] the “Patients with TEAE leading to treatment discontinuation” value [1, 2] was 2 (25%), the “Patients with any TEAE” value [1, 2] was 8 (100%) and the “Patients with any serious AE” value [1, 2] was 4 (50%). For the same compound, the “TEAE: Decreased appetite” value [1, 2] was 0, the “TEAE: Gastrointestinal disorders” value [1, 2] was 4 (50%) and the “TEAE: Headache” value [1, 2] was 0. The “TEAE: Hepatitis B” value [1, 2] was 1 (13%), the “TEAE: Jaundice” value [1, 2] was 1 (13%) and the “TEAE: Lacrimation increased” value [1, 2] was 1 (13%). For the same compound, the “TEAE: Malaria” value [1, 2] was 7 (88%), the “TEAE: Neutropenia” value [1, 2] was 0 and the “TEAE: Pyrexia” value [1, 2] was 0. The “TEAE: Vertigo” value [1, 2] was 1 (12.5%), the “TEAE: Vision blurred” value [1, 2] was 1 (13%) and the “Peakflow, change from baseline on D1 0.30 h” value [1, 3] was -15.0 median L/min. The “Peakflow, change from baseline on D2 24.30 h” value [1, 3] was 4.0 median L/min, the “Peakflow, change from baseline on D23 48.30 h” value [1, 3] was 45.0 median L/min and the “QTc interval - change from baseline Borderline: Incr. from B 30-60 ms” value [1, 4] was 2/8. For the same compound, the “QTc interval - change from baseline Prolonged: Incr. from B > 60 ms” value [1, 4] was 0/8, the “QTc interval Borderline: 431-450 ms (Boys); 451-470 ms (Girls)” value [1, 4] was 3/8 and the “QTc interval Prolonged: > 450 ms (Boys); > 470 ms (Girls)” value [1, 4] was 0/8. For the same compound, the “QTc interval ≥ 500 ms” value [1, 4] was 0/8, the “Patients with TEAE leading to treatment discontinuation” value [1, 5] was 2 (25%) and the “Patients with any TEAE” value [1, 5] was 5 (63%). The “Patients with any serious AE” value [1, 5] was 2 (25%), the “TEAE: Decreased appetite” value [1, 5] was 1 (13%) and the “TEAE: Gastrointestinal disorders” value [1, 5] was 1 (13%). For the same compound, the “TEAE: Headache” value [1, 5] was 0, the “TEAE: Jaundice” value [1, 5] was 0 and the “TEAE: Lacrimation increased” value [1, 5] was 0. The “TEAE: Malaria” value [1, 5] was 4 (50%), the “TEAE: Neutropenia” value [1, 5] was 2 (25%) and the “TEAE: Pyrexia” value [1, 5] was 0. For the same compound, the “TEAE: Vertigo” value [1, 5] was 0, the “TEAE: Vision blurred” value [1, 5] was 0 and the “Peakflow, change from baseline on D1 0.30 h” value [1, 6] was 2.5 median L/min. The “Peakflow, change from baseline on D2 24.30 h” value [1, 6] was 5.0 median L/min, the “Peakflow, change from baseline on D23 48.30 h” value [1, 6] was -10.0 median L/min and the “QTc interval - change from baseline Borderline: Incr. from B 30-60 ms” value [1, 7] was 0/8. The “QTc interval - change from baseline Prolonged: Incr. from B > 60 ms” value [1, 7] was 0/8, the “QTc interval Borderline: 431-450 ms (Boys); 451-470 ms (Girls)” value [1, 7] was 2/8 and the “QTc interval Prolonged: > 450 ms (Boys); > 470 ms (Girls)” value [1, 7] was 2/8. The “QTc interval ≥ 500 ms” value [1, 7] was 0/8, the Overall safety profile ([1]; Study 2) was “good” and the “Patients with a TEAE who discontinued study treatment and received rescue treatment, total” value ([1]; Study 2) was “Four”. For the same compound, the “Respiratory parameters: untoward effect” value ([1]; Study 2) was “no indication for an untoward effect”, the “SAEs: relation to study treatment” value ([1]; Study 2) was “not related” and the “Patients who had a SAE, total” value ([1]; Study 2, all in the SAR97276A treatment groups) was 6. For the same compound, the “Neutrophil count in the two patients with neutropenia who discontinued treatment” value ([1]; Study 2, day 2, returned to normal values at 72 h after treatment start) was 0.99 giga/L and 0.91 giga/L, the “Patients with a SAE with persistence of uncomplicated malaria” value ([1]; Study 2, of six SAE patients) was “five” and the “Efficacy in malaria monkey model” value (malaria monkey model) was “highly efficacious”.
